The target in test [1] is T1, Chymotrypsinogen B (Homo sapiens, UniProt P17538). In words: (§1) Inhibition of Alpha-chymotrypsin was determined by competitive substrate assay method.
Test [2] concerns the target T1, Chymotrypsinogen B. Described as §1. This is another data set of the same source.

T1 sequence (P17538 34-164 limits assumed, other chains not shown): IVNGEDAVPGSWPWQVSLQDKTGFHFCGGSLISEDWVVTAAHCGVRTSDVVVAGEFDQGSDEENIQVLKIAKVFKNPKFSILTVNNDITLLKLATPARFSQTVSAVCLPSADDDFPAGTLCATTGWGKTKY
T1 sequence (P17538 167-263 limits assumed, other chains not shown): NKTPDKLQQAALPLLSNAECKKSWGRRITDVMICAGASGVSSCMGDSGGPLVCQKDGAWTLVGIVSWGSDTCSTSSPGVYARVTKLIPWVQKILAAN

In turn, `O=C1O[C@H](CBr)[C@H]1Cc1ccccc1` yielded an inhibition constant (Ki) at Chymotrypsinogen B [1] of 2550 nM. Also, at Chymotrypsinogen B [2], the Ka came out at 2.94 min⁻¹.

For orientation: Ki means the dissociation constant of the complex between target and ligand, obtained from inhibition or displacement. A low value points to higher affinity.

Source of the values: ChEMBL document CHEMBL1128167, “(3R, 4S)-3-Benzyl-4-bromomethyloxetan-2-one, a fast acting alternate substrate inhibitor of -chymotrypsin” (Bioorg Med Chem Lett, 1995).
